The results in this text go back to ChEMBL document CHEMBL1151018, “Studies On uro'gen III synthase with modified bilanes” (Bioorg Med Chem Lett, 1994).

Active and inactive are the calls of the source. No cut-off for these calls is given here.

The first assay deals with T1, Uroporphyrinogen-III synthase (Homo sapiens) (UniProt P10746).
T1 sequence (whole entry): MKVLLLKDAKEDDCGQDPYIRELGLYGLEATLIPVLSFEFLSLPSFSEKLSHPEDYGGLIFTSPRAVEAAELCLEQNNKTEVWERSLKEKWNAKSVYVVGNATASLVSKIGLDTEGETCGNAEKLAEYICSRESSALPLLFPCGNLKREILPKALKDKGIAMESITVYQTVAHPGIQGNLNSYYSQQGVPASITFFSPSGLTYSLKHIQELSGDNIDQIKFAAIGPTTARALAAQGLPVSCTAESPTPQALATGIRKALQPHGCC
In words: Compound was tested for its activity as substrate of Uroporphyrinogen III synthase; Yes.
In the case of `O=C(O)CCc1c[nH]c(Cc2[nH]c(Cc3[nH]c(Cc4[nH]c(CO)c(CC(=O)O)c4CCC(=O)O)c(CC(=O)O)c3CCC(=O)O)c(CC(=O)O)c2CCC(=O)O)c1CC(=O)O`, the outcome was Active. Turning to `O=C(O)CCc1c[nH]c(Cc2[nH]c(Cc3[nH]c(Cc4[nH]c(CO)c(CC(=O)O)c4CCC(=O)O)c(CC(=O)O)c3CCC(=O)O)c(CCC(=O)O)c2CC(=O)O)c1CC(=O)O`, the outcome was Active. Turning to `CCc1c[nH]c(Cc2[nH]c(Cc3[nH]c(Cc4[nH]c(CO)c(CC(=O)O)c4CCC(=O)O)c(CC(=O)O)c3CCC(=O)O)c(CC(=O)O)c2CCC(=O)O)c1CC(=O)O`, the outcome was Active.

With `O=C(O)CCc1c(CC(=O)O)c[nH]c1Cc1[nH]c(Cc2[nH]c(Cc3[nH]c(CO)c(CC(=O)O)c3CCC(=O)O)c(CC(=O)O)c2CCC(=O)O)c(CC(=O)O)c1CCC(=O)O`, the result was Active.

Turning to `O=C(O)CCCc1c[nH]c(Cc2[nH]c(Cc3[nH]c(Cc4[nH]c(CO)c(CC(=O)O)c4CCC(=O)O)c(CC(=O)O)c3CCC(=O)O)c(CC(=O)O)c2CCC(=O)O)c1CC(=O)O`, the result was Active.

The target of another assay is T1, Uroporphyrinogen-III synthase (Homo sapiens). In words: Compound was tested for its activity as substrate of Uroporphyrinogen III synthase; Poor substrate.
In the case of `Cc1c(CCC(=O)O)c[nH]c1Cc1[nH]c(Cc2[nH]c(Cc3[nH]c(CO)c(CC(=O)O)c3CCC(=O)O)c(CC(=O)O)c2CCC(=O)O)c(CC(=O)O)c1CCC(=O)O`, the Activity entry is “(+)”.

For another assay the target is unchanged. Briefly: Compound was tested for its activity as inhibitor of Uroporphyrinogen III synthase; Yes.
Regarding `O=C(O)CCc1c(Br)[nH]c(Cc2[nH]c(Cc3[nH]c(Cc4[nH]c(CO)c(CC(=O)O)c4CCC(=O)O)c(CC(=O)O)c3CCC(=O)O)c(CC(=O)O)c2CCC(=O)O)c1CC(=O)O`, the result was Active. In the case of `N#Cc1[nH]c(Cc2[nH]c(Cc3[nH]c(Cc4[nH]c(CO)c(CC(=O)O)c4CCC(=O)O)c(CC(=O)O)c3CCC(=O)O)c(CC(=O)O)c2CCC(=O)O)c(CC(=O)O)c1CCC(=O)O`, the result was Active. Regarding `CC(O)c1[nH]c(Cc2[nH]c(Cc3[nH]c(Cc4[nH]cc(CCC(=O)O)c4CC(=O)O)c(CCC(=O)O)c3CC(=O)O)c(CCC(=O)O)c2CC(=O)O)c(CCC(=O)O)c1CC(=O)O` (configuration not stated), the result was Active.

With `Cc1[nH]c(Cc2[nH]c(Cc3[nH]c(Cc4[nH]c(CO)c(CC(=O)O)c4CCC(=O)O)c(CC(=O)O)c3CCC(=O)O)c(CC(=O)O)c2CCC(=O)O)c(CC(=O)O)c1CCC(=O)O`, the result was Active. Turning to `Cn1c(Cc2[nH]cc(CCC(=O)O)c2CC(=O)O)c(CCC(=O)O)c(CC(=O)O)c1Cc1[nH]c(Cc2[nH]c(CO)c(CC(=O)O)c2CCC(=O)O)c(CC(=O)O)c1CCC(=O)O`, the outcome was Active. Take `Cn1cc(CCC(=O)O)c(CC(=O)O)c1Cc1[nH]c(Cc2[nH]c(Cc3[nH]c(CO)c(CC(=O)O)c3CCC(=O)O)c(CC(=O)O)c2CCC(=O)O)c(CC(=O)O)c1CCC(=O)O`: the result was Active.
